{
  "source": "paper PMC7370999",
  "about": "“The Neighboring Subunit Is Engaged to Stabilize the Substrate in the Active Site of Plant Arginases” (Frontiers in Plant Science, 2020)",
  "key": {"AtARGAH1 [1]": {"molecular_target": "T1, AtARGAH1 (Arabidopsis thaliana, UniProt P46637)", "T1 construct": "gene ARGAH1; starts at codon 25 (signal peptide removed), ends at residue 342; N-terminal His6-tag cut by TEV (vector pMCSG68); E. coli BL21 Gold; hexamer, calculated 209 kDa", "T1 sequence (P46637 25-342)": "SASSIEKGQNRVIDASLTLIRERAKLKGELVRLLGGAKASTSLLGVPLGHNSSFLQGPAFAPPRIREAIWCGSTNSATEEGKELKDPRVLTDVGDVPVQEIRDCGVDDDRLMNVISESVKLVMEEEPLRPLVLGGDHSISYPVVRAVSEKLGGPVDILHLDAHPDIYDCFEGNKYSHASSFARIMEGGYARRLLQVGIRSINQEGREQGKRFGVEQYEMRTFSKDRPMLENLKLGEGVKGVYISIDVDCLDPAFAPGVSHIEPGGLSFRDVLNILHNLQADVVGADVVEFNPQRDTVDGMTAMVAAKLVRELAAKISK", "experiment": "X-ray crystal structure, […] A", "type": "binding", "settings": "product of arginine hydrolysis before crystal growth (50 mM L-arginine, 50 mM L-glutamic acid); binuclear Mn2+; active site, completed by loop L2* of neighbouring subunit"}, "AtARGAH1 [2]": {"molecular_target": "T1, AtARGAH1", "experiment": "turnover to ornithine during crystallization, seen in crystal structure", "type": "biochemical", "settings": "50 mM L-arginine in crystallization solution; Mn2+ enzyme"}, "MtARGAH": {"molecular_target": "T2, MtARGAH (Medicago truncatula, UniProt G7JFU5)", "T2 construct": "gene ARGAH; full-length, 338 residues incl. predicted 15-residue signal peptide; N-terminal His6-tag cut by TEV (vector pMCSG68); E. coli BL21 Gold; hexamer, theoretical 224 kDa", "T2 sequence (G7JFU5 1-338)": "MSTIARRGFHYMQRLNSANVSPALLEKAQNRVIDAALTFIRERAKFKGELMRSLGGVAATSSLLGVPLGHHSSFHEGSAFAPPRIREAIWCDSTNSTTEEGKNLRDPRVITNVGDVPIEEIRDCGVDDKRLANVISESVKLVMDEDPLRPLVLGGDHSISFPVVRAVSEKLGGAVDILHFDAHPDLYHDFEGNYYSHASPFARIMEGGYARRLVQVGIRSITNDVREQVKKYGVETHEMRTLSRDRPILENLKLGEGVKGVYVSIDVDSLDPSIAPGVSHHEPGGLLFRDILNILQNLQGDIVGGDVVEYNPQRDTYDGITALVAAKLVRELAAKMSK", "experiment": "turnover to ornithine during crystallization, seen in crystal structure", "type": "biochemical", "settings": "50 mM L-arginine in cocrystallization; Mn2+ enzyme"}},
  "data": [
    {"smiles": "NCCC[C@H](N)C(=O)O", "note": "[ornithine]", "values": [
      {"measurement": "X-ray crystal structure, 2.25 A", "setting": "AtARGAH1 [1]", "value": "Structures of AtARGAH1-ORN and MtARGAH-ORN with the reaction product, ornithine, were obtained"}
    ]},
    {"smiles": "N=C(N)NCCC[C@H](N)C(=O)O", "note": "[L-arginine]", "values": [
      {"measurement": "turnover to ornithine during crystallization, seen in crystal structure", "setting": "AtARGAH1 [2]", "value": "obtained as a result of in vitro arginine hydrolysis"},
      {"measurement": "turnover to ornithine during crystallization, seen in crystal structure", "setting": "MtARGAH", "value": "obtained as a result of in vitro arginine hydrolysis"}
    ]}
  ]
}
